This note sets out measurements from BindingDB's records for doi:10.1016/s0960-894x(00)00248-1 (University of Munich, 2000).

Each structure is given as a SMILES string.

By IC50 is commonly meant the concentration at which inhibition is half-maximal. Read a high IC50 as a need for much substance.

The experiment deals with Beta-lactamase TEM (Escherichia coli, UniProt P62593). The experiment in a line: ChEBML_39213. As for the experimental part:
Beta-Lactamase inhibition activity after 15 min of pre-incubation with the enzyme isolated from Escherichia coli 205 TEM

Beta-lactamase TEM, sequence (P62593 whole entry): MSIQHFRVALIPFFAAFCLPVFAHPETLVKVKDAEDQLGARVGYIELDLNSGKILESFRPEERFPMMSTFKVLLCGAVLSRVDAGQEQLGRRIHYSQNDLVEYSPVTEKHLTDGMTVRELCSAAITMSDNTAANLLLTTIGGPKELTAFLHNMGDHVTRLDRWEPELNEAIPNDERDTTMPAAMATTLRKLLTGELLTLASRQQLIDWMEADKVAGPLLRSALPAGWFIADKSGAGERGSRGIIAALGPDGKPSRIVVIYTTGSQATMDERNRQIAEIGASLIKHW

For `COC1=C(C(=O)O)N2C(=O)[C@H]([C@@H](C)O)[C@H]2C1` [Potassium; (5R,6S)-6-((R)-1-hydroxy-ethyl)-3-methoxy-7-oxo-1-aza-bicyclo[3.2.0]hept-2-ene-2-carboxylate], the half-inhibitory concentration (IC50) came to 340 µM.
